Source: patent US8019412B2, “Apparatus for facilitating transdermal delivery of therapeutic substances and method of transdermally delivering therapeutic substances” (International Scientific Pty Ltd., priority 2003, dated 2011)

System: excised human epidermal membranes
Type: in vitro ADME
Excerpt: In an experimental example, penetration of caffeine through excised human epidermal membranes was investigated using Franz-type diffusion cells and standard procedures. An electromagnetic field pattern was created and the penetration results compared with passive diffusion. The electromagnetic field pattern used was generated by applying an energisation signal having 12 pulses at a repeating frequency of 10 Hz to a coil Each of the pulses has a duration of approximately 360 μs. A phosphate buffered saline receptor solution was used and the amount of caffeine in the receptor solution determined by HPLC with UV detection at regular time intervals up to 6 hours post application of the electromagnetic field. In this example, the electromagnetic field pattern was applied for approximately 30 minutes.
Similar experiments were carried out with electromagnetic fields generated by applying an energisation signal having 15 pulses of 360 μs duration at a repeating frequency of 20 Hz to a coil, and by applying an energisation signal having 255 pulses at a repeating frequency of 2 Hz to a coil. These experiments yielded caffeine flux values of 7.20 μgcm^−2h^−1 and 8.51 μgcm^−2h^−1, although the latter of these experiments produced an effect only after 60 minutes.
A further experiment was carried out by applying an energisation signal having a single quasi-rectangular pulse repeated at 72 Hz to a coil.

Compound: Cn1c(=O)c2c(ncn2C)n(C)c1=O [caffeine]
- caffeine flux associated with passive diffusion: ~4.1 μgcm^−2h^−1
- highest caffeine flux achieved with electromagnetic field pattern: 19.24 μgcm^−2h^−1
- time after which an effect was produced: ≥ 60 min
